According to US12612379B2, “Inhibitors of APOL1 and methods of using same” (Vertex Pharmaceuticals Incorporated, priority 2021, dated 2026):

Target: T1, APOL1 (tet-inducible transgenic APOL1 T-REx-HEK293 cell lines) (Homo sapiens, UniProt O14791)
T1 sequence (O14791 1-398 S342G/I384M): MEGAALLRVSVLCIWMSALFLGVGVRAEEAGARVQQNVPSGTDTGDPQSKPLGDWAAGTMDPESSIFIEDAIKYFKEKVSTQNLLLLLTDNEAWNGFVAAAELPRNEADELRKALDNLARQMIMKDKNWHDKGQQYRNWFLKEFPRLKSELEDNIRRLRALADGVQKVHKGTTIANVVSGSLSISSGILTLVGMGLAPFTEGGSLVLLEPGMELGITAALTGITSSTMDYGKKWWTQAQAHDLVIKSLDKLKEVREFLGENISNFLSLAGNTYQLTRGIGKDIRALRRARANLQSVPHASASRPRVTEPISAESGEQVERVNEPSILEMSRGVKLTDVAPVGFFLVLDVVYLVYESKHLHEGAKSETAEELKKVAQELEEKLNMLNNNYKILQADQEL
Assay: MultiTox-Fluor Multiplex Cytotoxicity Assay for APOL1 inhibitor properties
Type: cell-based
Settings: APOL1 induced with 50 ng/mL tet, 24 hours with compound, ratio of dead to live cells, top concentration 10 μM; APOL1 variant (G0/G1/G2) not stated; read-out: IP50 (nM) (i.e., IC50 for cell proliferation)
Method: The MultiTox-Fluor Multiplex Cytotoxicity Assay is a single-reagent-addition, homogeneous, fluorescence assay that measures the number of live and dead cells simultaneously in culture wells. The assay measures cell viability and cytotoxicity by detecting two distinct protease activities. The live-cell protease activity is restricted to intact viable cells and is measured using a fluorogenic, cell-permeant peptide glycyl-phenylalanylamino fluorocoumarin (GF-AFC) substrate. The substrate enters intact cells, where it is cleaved to generate a fluorescent signal proportional to the number of living cells. […] A second, cell-impermeant, fluorogenic peptide substrate (bis-AAF-R110 Substrate) is used to measure dead-cell protease that has been released from cells that have lost membrane integrity. A ratio of dead to live cells is used to normalize data.
Briefly, the tet-inducible transgenic APOL1 T-REx-HEK293 cell lines were incubated with 50 ng/mL tet to induce APOL1 in the presence of 3-(2-(4-fluorophenyl)-1H-indol-3-yl)-N-((3S,4R)-4-hydroxy-2-oxopyrrolidin-3-yl)propenamide at 10.03, 3.24, 1.13, 0.356, 0.129, 0.042, 0.129, 0.0045, 0.0015, 0.0005 μM in duplicate for 24 hours in a humidified 37° C. incubator. The MultiTox reagent was added to each well and placed back in the incubator for an additional 30 minutes. The plate was read on the EnVision plate reader. A ratio of dead to live cells was used to normalize, and data was imported, analyzed, and fit using Genedata Screener (Basel, Switzerland) software. Data was normalized using percent of control, no tet (100% viability), and 50 ng/mL tet treated (0% viability), and fit using Smart Fit. The reagents, methods, and complete protocol for the MultiTox assay are described below.
Human embryonic kidney (HEK293) cell lines containing a tet-inducible expression system (T-REx™; Invitrogen, Carlsbad, CA) and Adeno-associated virus site 1 pAAVS1-Puro-APOL1 G0 or pAAVS1-Puro-APOL1 G1 or pAAVS1-Puro-APOL1 G2 Clones G0 DC2.13, G1 DC3.25, and G2 DC4.44 were grown in a T-225 flask at ˜90% confluency in cell growth media (DMEM, 10% Tet-free FBS, 2 mM L-glutamine, 100 Units/mL penicillin-streptomycin, 5 μg/mL blasticidin S HCl, 1 μg/mL puromycin dihydrochloride). Cells were washed with DPBS and then trypsinized to dissociate from the flask. Media was used to quench the trypsin, cells were then pelleted at 200 g and resuspended in fresh cell assay media (DMEM, 2% Tet-free FBS, 2 mM L-glutamine, 100 Units/mL penicillin-streptomycin). Cells were counted and diluted to 1.17×10^6 cells/mL. 20 μL of cells (23,400/well) were dispensed in every well of a 384-well Poly-D-Lysine coated plate using the Multidrop dispenser. The plates were then incubated at room temperature for one hour.
Tetracycline is needed to induce APOL1 expression. 1 mg/mL tet stock in water was diluted to 250 ng/mL (5×) in cell assay media. 60 μL of cell assay media (no tet control) was dispensed in columns 1 and 24, and 60 μL of 5×tet in 384-PP-round bottom plate was dispensed in columns 2 to 23 with the Multidrop dispenser.
Assay ready plates from the Global Compound Archive were ordered using template 384_APOL1Cell_DR10n2_50 uM_v3. Compounds were dispensed at 200 nL in DMSO. The final top concentration was 10 μM with a 10 point 3-fold dilution in duplicate in the MultiTox assay.
20 μL was transferred from the 5×tet plate to the ARP and mixed, then 5 μL of 5×tet and the compounds were transferred to the cell plate and mixed using the Bravo. The cell plate was placed in the humidified 37° C. 5% CO2 incubator for 24 hours.
The MultiTox-Fluor Multiplex Cytotoxicity Assay was performed in accordance with the manufacturer's protocol. After cells were incubated with tet and compound for 24 hours, 25 μL of 1×MultiTox reagent was added to each well using the Multidrop dispenser; the plates were placed on a plate shaker (600 rpm) for 2 minutes, then centrifuged briefly and placed back in the 37° C. incubator for 30 minutes. […]

Row | Compound | IC50
1 | C[C@H]1C[C@@](O)(c2ccc3cn[nH]c3c2)C[C@@H](c2cn(C)nn2)N1 [Compound 52] | ≤ 50 nM
2 | C[C@H]1C[C@@](O)(c2ccc3c(c2)OCC3)C[C@@H](c2cn(C)nn2)N1 [Compound 53] | ≥ 500 nM
3 | C[C@H]1C[C@@](O)(c2ccc3cn(C)nc3c2)C[C@@H](c2cn(C)nn2)N1 [Compound 54] | ≥ 500 nM
4 | C[C@H]1C[C@@](O)(c2ccc3c(c2)nnn3C)C[C@@H](c2cn(C)nn2)N1 [Compound 55] | ≥ 500 nM
5 | C[C@H]1C[C@@](O)(c2ccc3c(cnn3C)c2)C[C@@H](c2cn(C)nn2)N1 [Compound 56] | ≥ 500 nM
6 | C[C@H]1C[C@@](O)(c2ccc3nnn(C)c3c2)C[C@@H](c2cn(C)nn2)N1 [Compound 57] | ≥ 500 nM
7 | C[C@H]1C[C@@](O)(c2ccc3cnn(C)c3c2)C[C@@H](c2cn(C)nn2)N1 [Compound 58] | ≤ 50 nM
8 | Cc1nn(C)c2ccc([C@@]3(O)C[C@@H](c4cn(C)nn4)N[C@@H](C)C3)cc12 [Compound 59] | 50 to 500 nM
9 | C[C@H]1C[C@@](O)(C2CCCCC2)C[C@@H](c2cn(C)nn2)N1 [Compound 60, (2S,4S,6S)-4-cyclohexyl-2-methyl-6-(1-methyltriazol-4-yl)piperidin-4-ol] | ≥ 500 nM
10 | C[C@H]1C[C@@](O)(Cc2cccc(C(F)(F)F)c2)C[C@@H](c2cn(C)nn2)N1 [Compound 61, (2S,4S,6S)-2-methyl-6-(1-methyltriazol-4-yl)-4-[[3-(trifluoromethyl)phenyl]methyl]piperidin-4-ol] | ≥ 500 nM
11 | CC1CC(O)(c2ccc(C(F)(F)F)cc2)CC(c2c[nH]nn2)N1 (stereo not shown) [Compound 62, 2-methyl-6-(1H-triazol-4-yl)-4-[4-(trifluoromethyl)phenyl]piperidin-4-ol] | ≤ 50 nM
12 | C[C@H]1C[C@@](C#N)(c2ccc(Cl)cn2)C[C@@H](c2cn(C)nn2)N1 [Compound 63, (2S,4S,6S)-4-(5-chloropyridin-2-yl)-2-methyl-6-(1-methyl-1H-1,2,3-triazol-4-yl)piperidine-4-carbonitrile] | ≥ 500 nM
13 | C[C@H]1C[C@@](C(N)=O)(c2ccc(Cl)cn2)C[C@@H](c2cn(C)nn2)N1 [Compound 64] | ≥ 500 nM
14 | C[C@H]1C[C@@](CO)(c2ccc(C(F)(F)F)cc2)C[C@@H](c2cn(C)nn2)N1 [Compound 65, ((2S,4S,6S)-2-methyl-6-(1-methyl-1H-1,2,3-triazol-4-yl)-4-(4-(trifluoromethyl)phenyl)piperidin-4-yl)methanol] | 50 to 500 nM
15 | C[C@H]1C[C@@H](c2ccc(C(F)(F)F)cc2)C[C@@H](c2cn(C)nn2)N1 [Compound 66, (2S,4R,6S)-2-methyl-6-(1-methyltriazol-4-yl)-4-[4-(trifluoromethyl)phenyl]piperidine] | 50 to 500 nM
16 | C[C@H]1C[C@@](C(N)=O)(c2ccc(C(F)(F)F)cc2)C[C@@H](c2cn(C)nn2)N1 [Compound 67, (2S,4S,6S)-2-methyl-6-(1-methyl-1H-1,2,3-triazol-4-yl)-4-(4-(trifluoromethyl)phenyl)piperidine-4-carboxamide] | 50 to 500 nM
